Reference: patent US9573901B2, “Crystal form of chidamide, preparation method and use thereof” (SHENZHEN CHIPSCREEN BIOSCIENCES, LTD., priority 2012, dated 2017)

Experiments:
[1] = Solubility; assay type: physicochemical
[2] = Stability test at high temperature, high humidity and strong light exposure; assay type: physicochemical; conditions: high temperature (60° C.), high humidity (90%±5%) and strong light exposure (4500 Lx±500 Lx)
Procedure: The stability of the chidamide crystal form A and the chidamide crystal form B described herein was tested at high temperature (60° C.), high humidity (90%±5%) and strong light exposure (4500 Lx±500 Lx). […] Both the chidamide crystal form A and the chidamide crystal form B are suitable for the manufacturing of drug products and long-term storage. The chidamide crystal form A and the chidamide crystal form B described herein have excellent performance in terms of oral absorption and inhibition of cell differentiation and proliferation. Additionally, both crystal forms have low toxicity and favorable storage and treatment stability, and can be used in the preparation of a medicament for treating cell differentiation and proliferation-related diseases. Thus, the present invention provides the use of the chidamide crystal form A and the chidamide crystal form B in the preparation of a medicament for treating cell differentiation and proliferation-related diseases.

SMILES: Nc1cc(F)ccc1NC(=O)c1ccc(CNC(=O)/C=C/c2cccnc2)cc1 [chidamide crystal form A, N-(2-amino-4-fluorophenyl)-4-(N-(3-pyridylacryloyl)aminomethyl)benzamide]
- solubility [1]: favorable performance in terms of solubility
- content and total impurity amount after stability test [2]: no significant change
- crystal form after stability test [2]: keep the original crystal form
